The conditions of data set [1]: especially under humid conditions.
For data set [2] the following is noted: 25° C and 75% relative humidity, approximately constant weight. The source says: For the avoidance of doubt when used herein the terms “non-hygroscopic”, “slightly hygroscopic”, “moderately hygroscopic” and “very hygroscopic” are to have the meanings defined by the above mentioned criteria.

For the compound `CN(CCOc1ccc(CC2SC(=O)NC2=O)cc1)c1ccccn1.[Na]` (centres unmarked) [Sodium Salt, 5-[4-[2-(N-Methyl-N-(2-pyridyl)amino)ethoxy]benzyl]thiazolidine-2,4-dione, Sodium Salt], in data set [1], the solid state stability entry was “good solid state stability”. The “hygroscopicity classification (% weight gain)” value in data set [2] is listed as “non-hygroscopic (<2%)”.

The record behind these values is patent US20070185167A1, “SODIUM SALTS OF 5-[4-[2-(N-METHYL-N-(2-PYRIDYL)AMINO)ETHOXY]BENZYL]THIAZOLIDINE-2,4-DIONE” (SmithKline Beecham p.l.c., priority 2000, published 2007).
